# US20210187012A1, “ANTI-COAGULANT AGENT, ANTICOAGULATION DEVICE, BLOOD COAGULATION CURING METHOD, VASCULAR ENDOTHELIAL CELL FUNCTION IMPROVING METHOD, AND METABOLISM IMPROVING METHOD” (H2BANK CO., LTD., priority 2018, published 2021)
# Test system: membrane potential of mitochondria
# Conditions: in the presence of molecular hydrogen
smiles,measurement,value
[HH] [hydrogen],signal of TMRE (membrane potential) reduced,about 10%
